Results taken from PubChem BioAssay (NCI).
Several values for one entry are separate records, joined by “and”; a condition that tells them apart may be missing. Equal entries are not always repeated.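 All cell lines were grown in 96-well plates and treated with compound for 48 hours. Here, GI50 denotes the concentration required for 50% inhibition of growth. TGI is the concentration that stops growth completely.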

Tests used:
Assay in all cases: growth of human tumour cells (NCI), 48 h
[1] = test system: OVCAR-8 ovarian
[2] = test system: COLO 205 colon
[3] = test system: HL-60(TB) leukemia
[4] = test system: NCI-H460 lung
[5] = test system: M14 melanoma
[6] = test system: MDA-MB-231 breast
[7] = test system: U251 CNS
[8] = test system: NCI/ADR-RES ovarian
[9] = test system: 786-0 renal
[10] = test system: SK-MEL-2 melanoma
[11] = test system: KM12 colon
[12] = test system: MALME-3M melanoma
[13] = test system: UACC-257 melanoma
[14] = test system: SNB-75 CNS
[15] = test system: MCF7 breast
[16] = test system: RPMI-8226 leukemia
[17] = test system: SF-295 CNS
[18] = test system: T-47D breast
[19] = test system: BT-549 breast
[20] = test system: DU-145 prostate
[21] = test system: NCI-H226 lung
[22] = test system: OVCAR-4 ovarian
[23] = test system: OVCAR-5 ovarian
[24] = test system: SK-MEL-28 melanoma
[25] = test system: RXF 393 renal
[26] = test system: MDA-N
[27] = test system: HCT-15 colon
[28] = test system: NCI-H23 lung
[29] = test system: SR leukemia
[30] = test system: A498 renal
[31] = test system: A549 NSCLC
[32] = test system: CCRF-CEM leukemia
[33] = test system: SK-MEL-5 melanoma
[34] = test system: SF-268 CNS
[35] = test system: HS 578T breast
[36] = test system: HCT-116 colon
[37] = test system: PC-3 prostate
[38] = test system: MOLT-4 leukemia
[39] = test system: CAKI-1 renal
[40] = test system: HOP-92 NSCLC
[41] = test system: SK-OV-3 ovarian
[42] = test system: HOP-62 NSCLC
[43] = test system: SF-539 CNS
[44] = test system: OVCAR-3 ovarian
[45] = test system: HT29 colon
[46] = test system: SN12C renal
[47] = test system: MDA-MB-435
[48] = test system: HCC-2998 colon
[49] = test system: K-562 leukemia
[50] = test system: ACHN renal
[51] = test system: EKVX NSCLC
[52] = test system: UO-31 renal
[53] = test system: LOX IMVI melanoma
[54] = test system: TK-10 renal
[55] = test system: SNB-19 CNS
[56] = test system: SW-620 colon
[57] = test system: NCI-H522 lung
[58] = test system: IGROV1 ovarian
[59] = test system: UACC-62 melanoma

## Cc1ccc(/C=C2/N=C(N/N=C\C(O)C(O)C(O)C(O)CO)NC2=O)cc1 (stereo not given)
[1]
  TGI: > 100 µM
[2]
  TGI: > 100 µM
[3]
  TGI: > 100 µM
[4]
  TGI: > 100 µM
[5]
  TGI: > 100 µM
[6]
  TGI: > 100 µM
[7]
  TGI: > 100 µM
[8]
  TGI: > 100 µM
[9]
  TGI: > 100 µM
[10]
  TGI: > 100 µM
[11]
  TGI: > 100 µM
[12]
  TGI: > 100 µM
[13]
  TGI: > 100 µM
[14]
  TGI: > 100 µM
[15]
  TGI: > 100 µM
[16]
  TGI: > 100 µM
[17]
  TGI: > 100 µM
[18]
  TGI: > 100 µM
[19]
  TGI: > 100 µM
[20]
  TGI: > 100 µM
[21]
  TGI: > 100 µM
[22]
  GI50: 85.1 µM and > 100 µM and 39.2 µM
  TGI: > 100 µM
[23]
  TGI: > 100 µM
[24]
  TGI: > 100 µM
[25]
  TGI: > 100 µM
[26]
  TGI: > 100 µM
[27]
  TGI: > 100 µM
[28]
  TGI: > 100 µM
[29]
  TGI: > 100 µM
[30]
  TGI: > 100 µM
[31]
  TGI: > 100 µM
[32]
  TGI: > 100 µM
[33]
  TGI: > 100 µM
[34]
  TGI: > 100 µM
[35]
  TGI: > 100 µM
[36]
  TGI: > 100 µM
[37]
  TGI: > 100 µM
[38]
  GI50: 70.1 µM
  TGI: > 100 µM
[39]
  TGI: > 100 µM
[40]
  TGI: > 100 µM
[41]
  TGI: > 100 µM
[42]
  TGI: > 100 µM
[43]
  TGI: > 100 µM
[44]
  TGI: > 100 µM
[45]
  TGI: > 100 µM
[46]
  TGI: > 100 µM
[47]
  TGI: > 100 µM
[48]
  TGI: > 100 µM
[49]
  GI50: > 100 µM
  TGI: > 100 µM
[50]
  TGI: > 100 µM
[51]
  TGI: > 100 µM
[52]
  TGI: > 100 µM
[53]
  TGI: > 100 µM
[54]
  TGI: > 100 µM
[55]
  TGI: > 100 µM
[56]
  TGI: > 100 µM
[57]
  TGI: > 100 µM
[58]
  TGI: > 100 µM

## O=C1CSC2(CC(/C=C/c3cccs3)=NN2c2cccc(S(=O)(=O)O)c2)N1c1nc2ccccc2s1 (stereo not given)
[1]
  TGI: > 100 µM
[2]
  TGI: > 100 µM
[3]
  TGI: > 100 µM
[4]
  TGI: > 100 µM
[5]
  TGI: > 100 µM
[6]
  TGI: > 100 µM
[7]
  TGI: > 100 µM
[8]
  TGI: > 100 µM
[9]
  TGI: > 100 µM
[10]
  TGI: > 100 µM
[11]
  TGI: > 100 µM
[12]
  TGI: > 100 µM
[13]
  TGI: > 100 µM
[14]
  TGI: > 100 µM
[15]
  TGI: > 100 µM
[16]
  TGI: > 100 µM
[18]
  TGI: 80.2 µM
[19]
  TGI: > 100 µM
[20]
  TGI: > 100 µM
[59]
  TGI: > 100 µM
[21]
  TGI: > 100 µM
[22]
  TGI: > 100 µM
[23]
  TGI: > 100 µM
[24]
  TGI: > 100 µM
[25]
  TGI: > 100 µM
[26]
  TGI: > 100 µM
[27]
  TGI: > 100 µM
[28]
  TGI: > 100 µM
[29]
  TGI: > 100 µM
[30]
  TGI: 92.7 µM
[31]
  TGI: > 100 µM
[32]
  TGI: > 100 µM
[33]
  TGI: > 100 µM
[34]
  TGI: > 100 µM
[35]
  TGI: > 100 µM
[36]
  TGI: > 100 µM
[37]
  TGI: > 100 µM
[38]
  TGI: > 100 µM
[39]
  TGI: > 100 µM
[40]
  TGI: > 100 µM
[43]
  TGI: > 100 µM
[45]
  TGI: > 100 µM
[46]
  TGI: > 100 µM
[47]
  TGI: > 100 µM
[48]
  TGI: > 100 µM
[49]
  TGI: > 100 µM
[50]
  TGI: > 100 µM
[51]
  TGI: > 100 µM
[52]
  TGI: > 100 µM
[53]
  TGI: > 100 µM
[54]
  TGI: > 100 µM
[55]
  TGI: > 100 µM
[56]
  TGI: > 100 µM
[57]
  TGI: > 100 µM
[58]
  TGI: > 100 µM

## O=c1c2c(no[n+]2[O-])c2ccccc2n1-c1ccccc1
[1]
  TGI: 11.1 µM
[2]
  TGI: 20.3 µM
[3]
  TGI: 15.3 µM
[4]
  TGI: 21.4 µM
[5]
  TGI: 8.25 µM
[6]
  TGI: 24.8 µM
[7]
  TGI: 16.1 µM
[8]
  TGI: 21.6 µM
[9]
  TGI: 9.97 µM
[10]
  TGI: 18.8 µM
[11]
  TGI: 22 µM
[12]
  TGI: 14.5 µM
[13]
  TGI: 22 µM
[14]
  TGI: 19.2 µM
[15]
  TGI: 15.6 µM
[16]
  TGI: 42.8 µM
[17]
  TGI: 23.5 µM
[18]
  TGI: 23.6 µM
[19]
  TGI: 8.56 µM
[20]
  TGI: > 74.2 µM
[59]
  TGI: 13.7 µM
[21]
  TGI: 30.7 µM
[22]
  TGI: > 46.4 µM
[23]
  TGI: 21.9 µM
[24]
  TGI: 17 µM
[25]
  TGI: 14.7 µM
[26]
  TGI: 9.56 µM
[27]
  TGI: 8.76 µM
[28]
  TGI: 5.53 µM
[29]
  TGI: > 27.3 µM
[30]
  TGI: 22.2 µM
[31]
  TGI: 35.1 µM
[32]
  TGI: 7.21 µM
[33]
  TGI: 20 µM
[34]
  TGI: 20.1 µM
[35]
  TGI: 39.1 µM
[36]
  TGI: 6.73 µM
[37]
  TGI: 21.4 µM
[38]
  TGI: 26.6 µM
[39]
  TGI: 6.39 µM
[40]
  TGI: 17.6 µM
[41]
  TGI: 21.7 µM
[42]
  TGI: 22.5 µM
[43]
  TGI: 16 µM
[44]
  TGI: 19.8 µM
[45]
  TGI: 15.5 µM
[46]
  TGI: 17.2 µM
[47]
  TGI: 14.6 µM
[48]
  TGI: 20.6 µM
[49]
  TGI: > 46.4 µM
[50]
  TGI: 42.7 µM
[51]
  TGI: 24.5 µM
[52]
  TGI: 16.6 µM
[53]
  TGI: 7.28 µM
[54]
  TGI: 27.2 µM
[55]
  TGI: 25 µM
[56]
  TGI: 7.54 µM
[57]
  TGI: 3.27 µM
[58]
  TGI: 10 µM
